Where a name gives a salt, the structure may show the parent alone. Positions of bridges follow the written chain, without caps; N, C: chain ends. Non-standard residues stand in square brackets, D forms with d. Residues, ends and D or L forms follow the SMILES beside them. *: point of attachment. Me3N+(CH2)2O(CH2)2O(CH2)2CO = C[N+](C)(C)CCOCCOCCC(=O)*; Trp(7-Me) = Cc1cccc2c(C[C@H](N)C(=O)O)c[nH]c12; 2Nal = N[C@@H](Cc1ccc2ccccc2c1)C(=O)O; AEF = NCCOc1ccc(C[C@H](N)C(=O)O)cc1; dNMeY = CN[C@H](Cc1ccc(O)cc1)C(=O)O; X22 = CN1CC[N+](C)(CCOCCOCC*)CC1; 3Pal = N[C@@H](Cc1cccnc1)C(=O)O; Lys(Me) = CNCCCC[C@H](N)C(=O)O; Pen = CC(C)(S)[C@H](N)C(=O)O; αMeK = C[C@](N)(CCCCN)C(=O)O; X66 = C[N+]1(CCC*)CCOCC1; Thp = NC1(C(=O)O)CCOCC1; Tfa = O=C(C(F)(F)F)*; Sar = CNCC(=O)O; CHF2 = FC(F)*

The first data set can be described thus: Exposed Polar Surface Area (EPSA). Conditions: SFC on Chirex 3014 column; sample 1 mM DMSO stock. The format is physicochemical. The method in brief:
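SFC retention on a Chirex 3014 (S-valine/(R)-1-(α-naphthyl)ethylamine) column at 35 °C, 4 mL/min, 14 MPa outlet, 5–60% methanol/20 mM ammonium formate gradient in CO2. Retention times converted to EPSA (Å²) via linear calibration with 8 standards; samples from 1 mM DMSO stock, run in duplicate.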
On to `CC(=O)NCCCC[C@H](NC(=O)[C@](C)(CCCCN)NC(=O)[C@H](Cc1ccc2ccccc2c1)NC(=O)[C@H](Cc1ccc(OCCN)cc1)NC(=O)[C@H]1NC(=O)[C@H](Cc2ccc(O)cc2)NC(=O)[C@H](Cc2c[nH]c3c(C)cccc23)NC(=O)[C@H]([C@@H](C)O)NC(=O)[C@H](CC(N)=O)NC(=O)[C@@H](NC(C)=O)C(C)(C)SSC1(C)C)C(=O)N[C@@H](CC(N)=O)C(=O)N[C@H](CCCCN)C(=O)N(C)[C@H](Cc1ccc(O)cc1)C(N)=O` [compound 21, MeCO-Pen(3)-N-T-7MeW-Y-Pen(3)-AEF-2Nal-aMeK-K(Ac)-N-k-NMeDTyr-CONH2] (Ac-[Pen]NT[Trp(7-Me)]Y[Pen][AEF][2Nal][αMeK]K(Ac)N[dK][dNMeY]-NH2; disulfide 1-6 (inferred)), for which the EPSA is recorded as 170.27 Å^2.

The data set is the same for the next values; noted with them: SFC on Chirex 3014 column; sample 1 mM DMSO stock; read-out: EPSA.
As to `CC(=O)N(C)CCCC[C@@H]1NC(=O)[C@H](Cc2c[nH]c3c(C)cccc23)NC(=O)[C@H]([C@@H](C)O)NC(=O)[C@H](CC(=O)N(C)C)NC(=O)[C@@H](NC(=O)CCOCCOCC[N+](C)(C)C)C(C)(C)SSC(C)(C)[C@@H](C(=O)N[C@@H](Cc2ccc(OCCC[N+]3(C)CCOCC3)cc2)C(=O)N[C@@H](Cc2ccc3ccccc3c2)C(=O)NC2(C(=O)N[C@@H](CCCCN(C)C(C)=O)C(=O)N[C@@H](CC(N)=O)C(=O)N[C@@H](Cc3cccnc3)C(=O)N(C)CC(=O)N(C)C)CCOCC2)NC1=O` [compound 274, cPEG3aCO-Pen(3)-N(N(Me)2)-T-7MeW-K(NMeac)-Pen(3)-MMoPF-2Nal-THP-K(NMeAc)-N-3Pya-Sar-CON(Me)2] ({Me3N+(CH2)2O(CH2)2O(CH2)2CO}-[Pen]D(NMe2)T[Trp(7-Me)][Lys(Me)](Ac)[Pen]Y(X66)[2Nal][Thp][Lys(Me)](Ac)N[3Pal][Sar]-NMe2; disulfide 1-6), the EPSA was 153 A^2.

On to `CC(=O)NCCCC[C@@H]1NC(=O)[C@H](Cc2c[nH]c3c(C)cccc23)NC(=O)[C@H]([C@@H](C)O)NC(=O)[C@H](CC(N)=O)NC(=O)[C@@H](NC(C)=O)C(C)(C)SSC(C)(C)[C@@H](C(=O)N[C@@H](Cc2ccc(OCCOCCOCC[N+]3(C)CCN(C)CC3)cc2)C(=O)N[C@@H](Cc2ccc3ccccc3c2)C(=O)NC2(C(=O)N[C@@H](CCC(=O)O)C(=O)N[C@@H](CC(N)=O)C(=O)N[C@@H](Cc3cccnc3)C(=O)N(C)CC(N)=O)CCOCC2)NC1=O` [compound 433] (Ac-[Pen]NT[Trp(7-Me)]K(Ac)[Pen]Y(X22)[2Nal][Thp]EN[3Pal][Sar]-NH2; disulfide 1-6 (inferred)), for which the EPSA was 164 A^2.

Turning to `CC(=O)N[C@@H]1C(=O)N[C@@H](CC(N)=O)C(=O)N[C@@H]([C@@H](C)O)C(=O)N[C@@H](Cc2c[nH]c3c(C)cccc23)C(=O)N[C@@H](CCCCN(C)C(C)=O)C(=O)N[C@H](C(=O)N[C@@H](Cc2ccc(OCCN)cc2)C(=O)N[C@@H](Cc2ccc3ccccc3c2)C(=O)NC2(C(=O)N[C@@H](CCCCN(C)C(C)=O)C(=O)N[C@@H](CC(N)=O)C(=O)N[C@@H](Cc3cccnc3)C(=O)N(C)CC(N)=O)CCOCC2)C(C)(C)SSC1(C)C` [compound 280] (Ac-[Pen]NT[Trp(7-Me)][Lys(Me)](Ac)[Pen][AEF][2Nal][Thp][Lys(Me)](Ac)N[3Pal][Sar]-NH2; disulfide 1-6 (inferred)), the EPSA was found to be 167 A^2.

On to `CC(=O)NCCCC[C@@H]1NC(=O)[C@H](Cc2c[nH]c3c(C)cccc23)NC(=O)[C@H]([C@@H](C)O)NC(=O)[C@H](CC(N)=O)NC(=O)[C@@H](NC(=O)C(F)(F)F)C(C)(C)SSC(C)(C)[C@@H](C(=O)N[C@@H](Cc2ccc(OC(F)F)cc2)C(=O)N[C@@H](Cc2ccc3ccccc3c2)C(=O)NC2(C(=O)N[C@@H](CCCCNC(C)=O)C(=O)N[C@@H](CC(N)=O)C(=O)N[C@@H](Cc3cccnc3)C(=O)N(C)CC(N)=O)CCOCC2)NC1=O` [compound 54] (Tfa-[Pen]NT[Trp(7-Me)]K(Ac)[Pen]Y(CHF2)[2Nal][Thp]K(Ac)N[3Pal][Sar]-NH2; disulfide 1-6 (inferred)), for which the EPSA stood at 156 A^2.

Consider `CC(=O)NCCCC[C@@H]1NC(=O)[C@H](Cc2c[nH]c3c(C)cccc23)NC(=O)[C@H]([C@@H](C)O)NC(=O)[C@H](CC(N)=O)NC(=O)[C@@H](NC(=O)[C@@H](CCCCNC(=O)CCOCCOCC[N+](C)(C)C)NC(C)=O)C(C)(C)SSC(C)(C)[C@@H](C(=O)N[C@@H](Cc2ccc(OCCN)cc2)C(=O)N[C@@H](Cc2ccc3ccccc3c2)C(=O)NC2(C(=O)N[C@@H](CCCCNC(C)=O)C(=O)N[C@@H](CC(N)=O)C(=O)N[C@@H](Cc3cccnc3)C(=O)N(C)CC(N)=O)CCOCC2)NC1=O` [compound 88] (Ac-[dK](Me3N+(CH2)2O(CH2)2O(CH2)2CO)[Pen]NT[Trp(7-Me)]K(Ac)[Pen][AEF][2Nal][Thp]K(Ac)N[3Pal][Sar]-NH2; disulfide 2-7), for which the EPSA came out at 158 A^2.

`CC(=O)NCCCC[C@H](NC(=O)[C@](C)(CCCCN)NC(=O)[C@H](Cc1ccc2ccccc2c1)NC(=O)[C@H](Cc1ccc(OCCN)cc1)NC(=O)[C@H]1NC(=O)[C@H](Cc2ccc(O)cc2)NC(=O)[C@H](Cc2c[nH]c3c(C)cccc23)NC(=O)[C@H]([C@@H](C)O)NC(=O)[C@H](CC(N)=O)NC(=O)[C@@H](NC(C)=O)C(C)(C)SSC1(C)C)C(=O)N[C@@H](CC(N)=O)C(=O)N[C@H](CCCCN)C(=O)N(C)[C@H](Cc1ccc(O)cc1)C(N)=O` [compound 21, MeCO-Pen(3)-N-T-7MeW-Y-Pen(3)-AEF-2Nal-aMeK-K(Ac)-N-k-NMeDTyr-CONH2] (Ac-[Pen]NT[Trp(7-Me)]Y[Pen][AEF][2Nal][αMeK]K(Ac)N[dK][dNMeY]-NH2; disulfide 1-6 (inferred)): the EPSA turned out to be 152 A^2.

The values above are taken from US20260022143A1, “Cyclic Peptide Inhibitors of IL-23” (JANSSEN PHARMACEUTICA NV, priority 2022, published 2026).
